We go through 11 molecules from US20170226120A1, “INHIBITORS OF HIF PROLYL HYDROXYLASE” (MERCK SHARP & DOHME CORP., priority 2014, published 2017).

As a reminder, the IC50 is the concentration that gives 50% inhibition. A lower IC50 goes with greater potency in that assay.

Where two headings read alike, the source gives them in different places.

The target in data set [1] is T1, human HIF-PHD2 (Homo sapiens, UniProt Q9GZT9).
T1 construct: FLAG-tagged full length PHD2 expressed in and purified from baculovirus-infected Sf9 cells; FLAG; made in house; host or cells: baculovirus-infected Sf9 cells
T1 sequence (Q9GZT9 whole entry): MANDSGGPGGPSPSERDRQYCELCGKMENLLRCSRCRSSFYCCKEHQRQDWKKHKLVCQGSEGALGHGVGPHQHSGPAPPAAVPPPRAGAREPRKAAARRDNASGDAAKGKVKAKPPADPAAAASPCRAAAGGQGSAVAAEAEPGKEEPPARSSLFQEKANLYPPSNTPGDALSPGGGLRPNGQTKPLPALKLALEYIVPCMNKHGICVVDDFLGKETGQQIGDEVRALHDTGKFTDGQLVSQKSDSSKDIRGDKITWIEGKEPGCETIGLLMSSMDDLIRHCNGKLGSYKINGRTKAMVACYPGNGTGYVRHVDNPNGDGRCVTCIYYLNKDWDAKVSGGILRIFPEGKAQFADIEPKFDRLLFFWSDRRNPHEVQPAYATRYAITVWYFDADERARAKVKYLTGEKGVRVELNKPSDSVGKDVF
The data set can be described thus: HIF-PHD2 inhibition, time resolved fluorescence assay of HIF-1α peptide hydroxylation. The data set is classed as biochemical. As to conditions: FLAG-tagged full length PHD2; 0.2 μM 2-oxoglutarate, 0.5 μM HIF-1α peptide. As for the experimental part:
To each well of a 384-well plate, 1 μL of test compounds in DMSO (final concentration ranging from 0.3 nM to 10 uM) were added into 20 μl of assay buffer (50 mM Tris pH 7.4/0.01% Tween-20/0.1 mg/ml bovine serum albumin/10 μM ferrous sulfate/1 mM sodium ascorbate/20 μg/ml catalase) containing 0.15 μg/ml FLAG-tagged full length PHD2 expressed in and purified from baculovirus-infected Sf9 cells. After a 5 min preincubation at room temperature, the enzymatic reactions were initiated by the addition of 4 μL of substrates {final concentrations of 0.2 μM 2-oxoglutarate and 0.5 μM HIF-1α peptide biotinyl-[…] […] After incubation for 45 minutes at room temperature, the reactions were terminated by the addition of a 25 μL quench/detection mix to a final concentration of 1 mM ortho-phenanthroline, 0.1 mM EDTA, 0.5 nM anti-(His)6 LANCE reagent (Perkin-Elmer Life Sciences), 100 nM AF647-labeled streptavidin (Invitrogen), and 2 μg/ml (His)6-VHL complex {S. Tan Protein Expr. Purif.

A short description of data set [2]: Tissue PK profile in rat (liver and plasma drug level). It is filed as in vivo. The conditions noted are these: 10 mg/kg; for concentration at 4 h: po; for Kp at 4 h: liver/plasma, read-out: liver/plasma ratio. As for the experimental part:
The tissue PK profile of compounds described in this application were evaluated in rat. The tissue was harvested 4 hours after PO dosing at 10 mpk (vehicle: 0.5% MC; dose volume: 5 mL/Kg) and the drug level was determined. Shown in Table 1 are compound concentrations of selected examples in rat liver and plasma, as well as liver to plasma drug ratio.

Setting [3] is: liver, 4 hours after PO dosing at 10 mpk, vehicle 0.5% MC, read-out: liver concentration.
The mark [4] stands for this setting: 4 hours after PO dosing at 10 mpk, vehicle 0.5% MC.
Setting [5] is: plasma, 4 hours after PO dosing at 10 mpk, vehicle 0.5% MC, read-out: plasma concentration.

For `N#Cc1ccc(Cn2c3c(c(O)c(C(=O)NCC(=O)O)c2=O)COC3)cc1` [Example 6, 2-(1-(4-Cyanobenzyl)-4-hydroxy-2-oxo-1,2,5,7-tetrahydrofuro[3,4-b]pyridine-3-carboxamido)acetic acid], the IC50 in data set [1] came to 3.1 nM. Moreover, the results for the concentration at 4 h in data set [2] (setting [3]) and in data set [2] (setting [5]) were 1820 nM and 123 nM, respectively. In addition, the Kp at 4 h in data set [2] (setting [4]) was found to be 17.9.

With `Cc1cc(Cl)ccc1Cn1c2c(c(O)c(C(=O)NCC(=O)O)c1=O)COC2` [Example 42, 2-(1-(4-chloro-2-methylbenzyl)-4-hydroxy-2-oxo-1,2,5,7-tetrahydrofuro[3,4-b]pyridine-3-carboxamido)acetic acid], the IC50 in data set [1] is 4.1 nM. The concentration at 4 h was 54200 nM in data set [2] (setting [3]) and 1520 nM in data set [2] (setting [5]). Besides, the Kp at 4 h in data set [2] (setting [4]) was found to be 35.6.

In the case of `NC(=O)c1ccc(-c2ccc(Cn3c4c(c(O)c(C(=O)NCC(=O)O)c3=O)COC4)cc2)cc1` [Example 61, 2-(1-((4′-carbamoyl-[1,1′-biphenyl]-4-yl)methyl)-4-hydroxy-2-oxo-1,2,5,7-tetrahydrofuro[3,4-b]pyridine-3-carboxamido)acetic acid], the IC50 in data set [1] was 1.1 nM. For the same molecule, the concentration at 4 h in data set [2] (setting [3]) is 25.8 nM; in data set [2] (setting [5]), 5.28 nM. Further, the Kp at 4 h in data set [2] (setting [4]) is 4.89.

As for `O=C(O)CNC(=O)c1c(O)c2c(n(Cc3cc(F)c(F)cc3F)c1=O)COC2` [Example 41, 2-(4-hydroxy-2-oxo-1-(2,4,5-trifluorobenzyl)-1,2,5,7-tetrahydrofuro[3,4-b]pyridine-3-carboxamido)acetic acid], the concentration at 4 h is 41400 nM in data set [2] (in vivo, liver concentration) and 476 nM in data set [2] (in vivo, plasma concentration). Also, the Kp at 4 h in data set [2] (setting [4]) came to 87.3.

For the molecule `O=C(O)CNC(=O)c1c(O)c2c(n(Cc3nc(C(F)(F)F)cs3)c1=O)COC2` [Example 21, 2-(4-hydroxy-2-oxo-1-((4-(trifluoromethyl)thiazol-2-yl)methyl)-1,2,5,7-tetrahydrofuro[3,4-b]pyridine-3-carboxamido)acetic acid], the concentration at 4 h was found to be 4770 nM in data set [2] (in vivo, liver concentration) and 8 nM in data set [2] (in vivo, plasma concentration). The Kp at 4 h in data set [2] (setting [4]) was 587.

In the case of `O=C(O)CNC(=O)c1c(O)c2c(n(Cc3ccc(F)cc3F)c1=O)COC2` [Example 32, 2-(1-(2,4-difluorobenzyl)-4-hydroxy-2-oxo-1,2,5,7-tetrahydrofuro[3,4-b]pyridine-3-carboxamido)acetic acid], the concentration at 4 h in data set [2] (in vivo, liver concentration) is 24800 nM; in data set [2] (in vivo, plasma concentration), 492 nM. Also, the Kp at 4 h in data set [2] (setting [4]) came out at 52.8.

With `O=C(O)CNC(=O)c1c(O)c2c(n(Cc3cnc(C(F)(F)F)s3)c1=O)COC2` [Example 18, 2-(4-hydroxy-2-oxo-1-((2-(trifluoromethyl)thiazol-5-yl)methyl)-1,2,5,7-tetrahydrofuro[3,4-b]pyridine-3-carboxamido)acetic acid], the concentration at 4 h in data set [2] (in vivo, liver concentration) is 11800 nM; in data set [2] (in vivo, plasma concentration) it was 55.9 nM. Also, in data set [2] (setting [4]), the Kp at 4 h is 258.

Take `CC(C)(O)c1ccc(Cn2c3c(c(O)c(C(=O)NCC(=O)O)c2=O)COC3)cc1` [Example 5, 2-(4-Hydroxy-1-(4-(2-hydroxypropan-2-yl)benzyl)-2-oxo-1,2,5,7-tetrahydrofuro[3,4-b]pyridine-3-carboxamido)acetic acid]: the concentration at 4 h was 5600 nM in data set [2] (in vivo, liver concentration) and 26.7 nM in data set [2] (in vivo, plasma concentration). For the same molecule, the Kp at 4 h in data set [2] (setting [4]) came out at 214.

For `O=C(O)CNC(=O)c1c(O)c2c(n(Cc3ncc(C(F)(F)F)cn3)c1=O)COC2` [Example 9, 2-(4-hydroxy-2-oxo-1-((5-(trifluoromethyl)pyrimidin-2-yl)methyl)-1,2,5,7-tetrahydrofuro[3,4-b]pyridine-3-carboxamido)acetic acid], the concentration at 4 h in data set [2] (in vivo, liver concentration) came out at 1810 nM; in data set [2] (in vivo, plasma concentration), 37.6 nM. Also, the Kp at 4 h in data set [2] (setting [4]) came out at 43.6.

With `O=C(O)CNC(=O)c1c(O)c2c(n(Cc3ccc(Cl)cc3)c1=O)COC2` [Example 27, 2-(1-(4-chlorobenzyl)-4-hydroxy-2-oxo-1,2,5,7-tetrahydrofuro[3,4-b]pyridine-3-carboxamido)acetic acid], the concentration at 4 h in data set [2] (in vivo, liver concentration) was 21500 nM; in data set [2] (in vivo, plasma concentration), 551 nM. The Kp at 4 h in data set [2] (setting [4]) came out at 39.6.

Turning to `N#Cc1ccc(-c2ccc(Cn3c4c(c(O)c(C(=O)NCC(=O)O)c3=O)COC4)cc2)cc1` [Example 24, 2-(1-((4′-cyano-[1,1′-biphenyl]-4-yl)methyl)-4-hydroxy-2-oxo-1,2,5,7-tetrahydrofuro[3,4-b]pyridine-3-carboxamido)acetic acid], the IC50 in data set [1] was 1.5 nM. In addition, the concentration at 4 h in data set [2] (setting [3]) amounted to 642 nM; in data set [2] (setting [5]), 13.7 nM. Also, the Kp at 4 h in data set [2] (setting [4]) worked out at 30.4.
